{"source": "patent US10265346B2", "about": "“Trehalose-containing mammalian cell suspension for prevention of pulmonary embolism formation” (OTSUKA PHARMACEUTICAL FACTORY, INC., priority 2012, dated 2019)", "test": "Preventive effect against pulmonary embolism formation (no method given)", "conditions": "stated as demonstrated by the present inventors, no data given"}
{"substance": "dextran", "values": [{"measurement": "preventive effect against pulmonary embolism formation (in words)", "result": "demonstrated to have a preventive effect against pulmonary embolism formation"}]}
